Measured values taken from paper PMC11589570, “Critical assessment of LC3/GABARAP ligands used for degrader development and ligandability of LC3/GABARAP binding pockets” (Nature Communications, 2024).
“Also recorded” adds a separate entry of the source. Like-named read-outs stand apart in the source and are kept apart here.

Key:
GABARAPL2 = GABARAPL2 (Homo sapiens, UniProt P60520); settings: for CSP: GABARAPL2:ligand molar ratio 1:2; for 3D Mapping code: molar ratio 1:2
[1] = test system: RPE-1 GFP-LC3B-RPF-LC3∆G reporter cell line; assay: Autophagy flux assay; type: cell-based; settings: rebuttal letter

Sequence of GABARAPL2 (P60520 whole entry): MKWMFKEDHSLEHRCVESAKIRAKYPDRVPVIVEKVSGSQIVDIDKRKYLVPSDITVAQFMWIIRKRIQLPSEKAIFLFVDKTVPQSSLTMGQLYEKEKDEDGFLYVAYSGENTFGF

## O=C1Nc2ccc(I)cc2C1=Cc1cc(Br)c(O)c(Br)c1 [compound 4]
GABARAPL2; GABARAPL2, listed as 10O5
  interaction in 2D NMR titration: only 10O5 (4) was able to interact with GABARAPL2; also recorded: prominent CSP
GABARAPL2; Molar ratio 10O5:GABARAPL2 0.5
  CSP induced, K48 HN resonance: 0.08111
  CSP induced, L50 HN resonance: 0.0416
  CSP induced, R28 HN resonance: 0.0281
  CSP induced, V16 HN resonance: 0.00761
  CSP induced, V31 HN resonance: 0.04746
  CSP induced, Y109 HN resonance: 0.01545
GABARAPL2; Molar ratio 10O5:GABARAPL2 1
  CSP induced, K48 HN resonance: 0.1338
  CSP induced, L50 HN resonance: 0.06831
  CSP induced, R28 HN resonance: 0.04204
  CSP induced, V16 HN resonance: 0.03636
  CSP induced, V31 HN resonance: 0.08123
  CSP induced, Y109 HN resonance: 0.03416
GABARAPL2; Molar ratio 10O5:GABARAPL2 2
  CSP induced, K48 HN resonance: 0.1662
  CSP induced, L50 HN resonance: 0.09155
  CSP induced, R28 HN resonance: 0.06538
  CSP induced, V16 HN resonance: 0.05012
  CSP induced, V31 HN resonance: 0.1265
  CSP induced, Y109 HN resonance: 0.04477
GABARAPL2; Molar ratio 10O5:GABARAPL2 4
  CSP induced, K48 HN resonance: 0.2294
  CSP induced, L50 HN resonance: 0.1327
  CSP induced, R28 HN resonance: 0.07911
  CSP induced, V16 HN resonance: 0.07334
  CSP induced, V31 HN resonance: 0.1464
  CSP induced, Y109 HN resonance: 0.06741
GABARAPL2; residue A19
  CSP: 0.086 ppm
  3D Mapping code: Orange
GABARAPL2; residue A23
  CSP: 0.058 ppm
  3D Mapping code: Orange
GABARAPL2; residue A58
  CSP: 0.016 ppm
GABARAPL2; residue A75
  CSP: 0.00255 ppm
GABARAPL2; residue A108
  CSP: 0.017 ppm
GABARAPL2; residue C15
  CSP: 0.019 ppm
GABARAPL2; residue D8
  CSP: 0.007 ppm
GABARAPL2; residue D27
  CSP: 0.029 ppm
  3D Mapping code: Light green
GABARAPL2; residue D43
  CSP: 0.009 ppm
GABARAPL2; residue D45
  CSP: 0.030 ppm
  3D Mapping code: Light green
GABARAPL2; residue D54
  CSP: 0.029 ppm
  3D Mapping code: Light green
GABARAPL2; residue D81
  CSP: 0.022 ppm
GABARAPL2; residue D100
  CSP: 0.018 ppm
GABARAPL2; residue D102
  CSP: 0.033 ppm
  3D Mapping code: Light green
GABARAPL2; residue E7
  CSP: 0.029 ppm
  3D Mapping code: Light green
GABARAPL2; residue E12
  CSP: 0.015 ppm
GABARAPL2; residue E17
  CSP: 0.081 ppm
  3D Mapping code: Orange
GABARAPL2; residue E34
  CSP: 0.060 ppm
  3D Mapping code: Orange
GABARAPL2; residue E73
  CSP: 0.00458 ppm
GABARAPL2; residue E96
  CSP: 0.019 ppm
GABARAPL2; residue E98
  CSP: 0.025 ppm
GABARAPL2; residue E101
  CSP: 0.007 ppm
GABARAPL2; residue E112
  CSP: 0.00563 ppm
GABARAPL2; residue F60
  CSP: 0.00542 ppm
GABARAPL2; residue F77
  CSP: 0.006 ppm
GABARAPL2; residue F79
  CSP: 0.007 ppm
GABARAPL2; residue F104
  CSP: 0.059 ppm
  3D Mapping code: Orange
GABARAPL2; residue F115
  CSP: 0.012 ppm
GABARAPL2; residue G38
  CSP: 0.040 ppm
  3D Mapping code: Light green
GABARAPL2; residue G103
  CSP: 0.019 ppm
GABARAPL2; residue G111
  CSP: 0.010 ppm
GABARAPL2; residue G116
  CSP: 0.007 ppm
GABARAPL2; residue H9
  CSP: 0.008 ppm
GABARAPL2; residue H13
  CSP: 0.031 ppm
  3D Mapping code: Light green
GABARAPL2; residue I21
  CSP: 0.054 ppm
  3D Mapping code: Orange
GABARAPL2; residue I32
  CSP: 0.057 ppm
  3D Mapping code: Blue
GABARAPL2; residue I41
  CSP: 0.00428 ppm
GABARAPL2; residue I44
  CSP: 0.029 ppm
  3D Mapping code: Light green
GABARAPL2; residue I55
  CSP: 0.026 ppm
  3D Mapping code: Light green
GABARAPL2; residue I63
  CSP: 0.014 ppm
GABARAPL2; residue I64
  CSP: 0.021 ppm
GABARAPL2; residue I68
  CSP: 0.021 ppm
GABARAPL2; residue I76
  CSP: 0.004 ppm
GABARAPL2; residue K2
  CSP: 0.017 ppm
GABARAPL2; residue K6
  CSP: 0.023 ppm
GABARAPL2; residue K20
  CSP: 0.058 ppm
  3D Mapping code: Orange
GABARAPL2; residue K24
  CSP: 0.015 ppm
GABARAPL2; residue K35
  CSP: 0.014 ppm
GABARAPL2; residue K46, estimated
  CSP: 0.050 ppm
GABARAPL2; residue K46
  3D Mapping code: Blue
GABARAPL2; residue K48
  CSP: 0.168 ppm
  3D Mapping code: Blue
GABARAPL2; residue K66
  CSP: 0.020 ppm
GABARAPL2; residue K74
  CSP: 0.011 ppm
GABARAPL2; residue K97
  CSP: 0.012 ppm
GABARAPL2; residue K99
  CSP: 0.018 ppm
GABARAPL2; residue L11
  CSP: 0.016 ppm
GABARAPL2; residue L50
  CSP: 0.096 ppm
  3D Mapping code: Blue
GABARAPL2; residue L70
  CSP: 0.006 ppm
GABARAPL2; residue L78
  CSP: 0.006 ppm
GABARAPL2; residue L105
  CSP: 0.060 ppm
  3D Mapping code: Orange
GABARAPL2; residue M1
  CSP: 0.010 ppm
GABARAPL2; residue M61
  CSP: 0.015 ppm
GABARAPL2; residue N113
  CSP: 0.00264 ppm
GABARAPL2; residue P26, estimated
  CSP: 0.050 ppm
GABARAPL2; residue P26
  3D Mapping code: Light green
GABARAPL2; residue P30, estimated
  CSP: 0.110 ppm
GABARAPL2; residue P30
  3D Mapping code: Blue
GABARAPL2; residue P52, estimated
  CSP: 0.070 ppm
GABARAPL2; residue P52
  3D Mapping code: Blue
GABARAPL2; residue P71, estimated
  CSP: 0.010 ppm
GABARAPL2; residue Q40
  CSP: 0.017 ppm
GABARAPL2; residue Q59
  CSP: 0.016 ppm
GABARAPL2; residue Q69
  CSP: 0.020 ppm
GABARAPL2; residue R14
  CSP: 0.091 ppm
  3D Mapping code: Orange
GABARAPL2; residue R22
  CSP: 0.083 ppm
  3D Mapping code: Orange
GABARAPL2; residue R28
  CSP: 0.064 ppm
  3D Mapping code: Orange
GABARAPL2; residue R47, estimated
  CSP: 0.100 ppm
GABARAPL2; residue R47
  3D Mapping code: Blue
GABARAPL2; residue R65
  CSP: 0.008 ppm
GABARAPL2; residue R67
  CSP: 0.00158 ppm
GABARAPL2; residue S10
  CSP: 0.019 ppm
GABARAPL2; residue S18
  CSP: 0.021 ppm
GABARAPL2; residue S37
  CSP: 0.030 ppm
  3D Mapping code: Light green
GABARAPL2; residue S39
  CSP: 0.017 ppm
GABARAPL2; residue S53
  CSP: 0.076 ppm
  3D Mapping code: Orange
GABARAPL2; residue S72
  CSP: 0.004 ppm
GABARAPL2; residue S110
  CSP: 0.010 ppm
GABARAPL2; residue T56
  CSP: 0.008 ppm
GABARAPL2; residue T114
  CSP: 0.00144 ppm
GABARAPL2; residue V16
  CSP: 0.051 ppm
  3D Mapping code: Light green
GABARAPL2; residue V29
  CSP: 0.102 ppm
  3D Mapping code: Blue
GABARAPL2; residue V31
  CSP: 0.128 ppm
  3D Mapping code: Blue
GABARAPL2; residue V33
  CSP: 0.064 ppm
  3D Mapping code: Orange
GABARAPL2; residue V36
  CSP: 0.024 ppm
GABARAPL2; residue V42
  CSP: 0.00232 ppm
GABARAPL2; residue V51
  CSP: 0.077 ppm
  3D Mapping code: Blue
GABARAPL2; residue V57
  CSP: 0.024 ppm
GABARAPL2; residue V80
  CSP: 0.028 ppm
  3D Mapping code: Light green
GABARAPL2; residue V107
  CSP: 0.039 ppm
  3D Mapping code: Light green
GABARAPL2; residue W3
  CSP: 0.022 ppm
GABARAPL2; residue W62
  CSP: 0.016 ppm
GABARAPL2; residue Y25
  CSP: 0.085 ppm
  3D Mapping code: Orange
GABARAPL2; residue Y49
  CSP: 0.148 ppm
  3D Mapping code: Blue
GABARAPL2; residue Y106
  CSP: 0.097 ppm
  3D Mapping code: Orange
GABARAPL2; residue Y109
  CSP: 0.012 ppm
[1]
  autophagy induction (autophagy flux): did not induce autophagy
  effects on cell growth (Incucyte life cell imaging): No induction of autophagy or effects
